Tested on: SEM cells
Experiment: cell viability relative to DMSO control; higher = less cytotoxic
Conditions: 48 h
Procedure, shortened: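 Viability, reported as a per-plate percentage of DMSO wells with cell-free wells as background, came from CellTiter-Glo One luminescence. Reading took place after 48 h at 37°C. Before that, NOMO1 or SEM (500 cells/well) or P12-Ichikawa (1000 cells/well) leukemia cells, adapted for at least four passages in each medium, were seeded in 1536-well plates (5 μl) and pin-dosed with library compounds in DMSO, 47 μM to 0.79 nM over 11 threefold points.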

[1] = HPLM + 10% dialyzed FBS, 0.000781 µM
[2] = HPLM + 10% dialyzed FBS, 0.00234 µM
[3] = HPLM + 10% dialyzed FBS, 0.00702 µM
[4] = HPLM + 10% dialyzed FBS, 0.0211 µM
[5] = HPLM + 10% dialyzed FBS, 0.0632 µM
[6] = HPLM + 10% dialyzed FBS, 0.19 µM
[7] = HPLM + 10% dialyzed FBS, 0.569 µM
[8] = HPLM + 10% dialyzed FBS, 1.71 µM
[9] = HPLM + 10% dialyzed FBS, 5.12 µM
[10] = HPLM + 10% dialyzed FBS, 15.4 µM
[11] = HPLM + 10% dialyzed FBS, 46.1 µM
[12] = RPMI 5 mM glucose + 10% FBS, 0.000781 µM
[13] = RPMI 5 mM glucose + 10% FBS, 0.00234 µM
[14] = RPMI 5 mM glucose + 10% FBS, 0.00702 µM
[15] = RPMI 5 mM glucose + 10% FBS, 0.0211 µM
[16] = RPMI 5 mM glucose + 10% FBS, 0.0632 µM
[17] = RPMI 5 mM glucose + 10% FBS, 0.19 µM
[18] = RPMI 5 mM glucose + 10% FBS, 0.569 µM
[19] = RPMI 5 mM glucose + 10% FBS, 1.71 µM
[20] = RPMI 5 mM glucose + 10% FBS, 5.12 µM
[21] = RPMI 5 mM glucose + 10% FBS, 15.4 µM
[22] = RPMI 5 mM glucose + 10% FBS, 46.1 µM
[23] = RPMI 5 mM glucose + 10% dialyzed FBS, 0.000781 µM
[24] = RPMI 5 mM glucose + 10% dialyzed FBS, 0.00234 µM
[25] = RPMI 5 mM glucose + 10% dialyzed FBS, 0.00702 µM
[26] = RPMI 5 mM glucose + 10% dialyzed FBS, 0.0211 µM
[27] = RPMI 5 mM glucose + 10% dialyzed FBS, 0.0632 µM
[28] = RPMI 5 mM glucose + 10% dialyzed FBS, 0.19 µM
[29] = RPMI 5 mM glucose + 10% dialyzed FBS, 0.569 µM
[30] = RPMI 5 mM glucose + 10% dialyzed FBS, 1.71 µM
[31] = RPMI 5 mM glucose + 10% dialyzed FBS, 5.12 µM
[32] = RPMI 5 mM glucose + 10% dialyzed FBS, 15.4 µM
[33] = RPMI 5 mM glucose + 10% dialyzed FBS, 46.1 µM

Row | Structure (SMILES) | cell viability [1] [%] | cell viability [2] [%] | cell viability [3] [%] | cell viability [4] [%] | cell viability [5] [%] | cell viability [6] [%] | cell viability [7] [%] | cell viability [8] [%] | cell viability [9] [%] | cell viability [10] [%] | cell viability [11] [%] | cell viability [12] [%] | cell viability [13] [%] | cell viability [14] [%] | cell viability [15] [%] | cell viability [16] [%] | cell viability [17] [%] | cell viability [18] [%] | cell viability [19] [%] | cell viability [20] [%] | cell viability [21] [%] | cell viability [22] [%] | cell viability [23] [%] | cell viability [24] [%] | cell viability [25] [%] | cell viability [26] [%] | cell viability [27] [%] | cell viability [28] [%] | cell viability [29] [%] | cell viability [30] [%] | cell viability [31] [%] | cell viability [32] [%] | cell viability [33] [%]
1 | CC[C@H](CC#N)OC(=O)N[C@@H](C)c1cccc(NC(=O)Nc2ccc(-c3cnco3)c(OC)c2)c1 | 105 | 98.7 | 111 | 119 | 118 | 86.2 | 71.8 | 74.8 | 44.5 | 30.3 | 31.6 | 108 | 112 | 114 | 118 | 112 | 96 | 76.3 | 68 | 47.7 | 30.2 | 18.1 | 107 | 110 | 124 | 105 | 105 | 112 | 100 | 99.6 | 67.9 | 43.3 | 38.7
2 | NC1(Cc2ccc(Cl)cc2)CCN(c2ncnc3[nH]ccc23)CC1 | 103 | 106 | 96 | 100 | 92.8 | 91.6 | 95.7 | 75.7 | 66.9 | 6.62 | 2.55 | 107 | 117 | 118 | 116 | 112 | 106 | 86.1 | 79.6 | 59.8 | 4.37 | 2.8 | 106 | 98.6 | 99.7 | 92.7 | 81.8 | 83.7 | 82.9 | 74.5 | 54.7 | 6.24 | 2.65
3 | COc1nccc(-c2c(-c3ccc(F)cc3)ncn2C2CCNCC2)n1 | 98.2 | 114 | 120 | 107 | 120 | 114 | 113 | 110 | 102 | 98.7 | 81.7 |  |  |  |  |  |  |  |  |  |  |  | 69.4 | 117 | 144 | 113 | 116 | 114 | 104 | 126 | 110 | 95.8 | 79.5
4 | COc1ccc(-c2cc3nccn3c(Nc3ncccc3C(N)=O)n2)cc1OC | 81.8 | 92.1 | 90.4 | 86.8 | 85.7 | 91.4 | 85.3 | 61.6 | 74.4 | 65.9 | 58.8 | 82.7 | 105 | 103 | 100 | 99 | 87.2 | 89.2 | 63.1 | 81 | 60.7 | 58.1 | 85.7 | 91.6 | 86.6 | 101 | 91 | 76.2 | 68.5 | 49.9 | 59.3 | 49.1 | 49.5
5 | CC\1=C/C=C\C=[N]1[Pt](N)(Cl)Cl | 82 | 79.2 | 91.4 | 96.5 | 102 | 84.1 | 89.5 | 89 | 98.1 | 83.6 | 85.1 | 99.2 | 119 | 126 | 108 | 119 | 124 | 114 | 109 | 110 | 120 | 58 | 80.5 | 90.5 | 97.1 | 100 | 98.1 | 91.4 | 87.3 | 83 | 91.5 | 79.5 | 55.9
6 | COC1=C(N2CCNC(C)C2)C(=CC3=C1N(\C=C(C(O)=O)/C3=O)C4CC4)F (stereo not given) | 74.8 | 88.8 | 83.1 | 84.2 | 51.8 | 66.3 | 55.2 | 51.2 | 13.9 | 21.6 | 18.1 | 98 | 95.1 | 116 | 96 | 53.2 | 92.3 | 58.5 | 61.7 | 44.8 | 37.9 | 25.6 | 73.7 | 73.3 | 79.9 | 83.1 | 48.8 | 60.2 | 48.7 | 38.5 | 13.4 | 26.6 | 12.2
7 | OC[C@H]1O[C@@H](O[C@@H]2[C@@H](CO)O[C@](O)(CO)[C@H]2O)[C@H](O)[C@@H](O)[C@H]1O | 103 | 96.4 | 105 | 110 | 113 | 100 | 109 | 108 | 105 | 63.5 | 93.7 | 102 | 85 | 108 | 112 | 94.1 | 97.2 | 102 | 96.2 | 93.3 | 68.9 | 95.8 | 95.6 | 82.5 | 102 | 116 | 101 | 105 | 94.6 | 106 | 82.8 | 72.2 | 96.4

Reference: the supplement of paper PMC11451515
